# Measured values: ChEMBL document CHEMBL1201862, “PubChem BioAssay data set” (2004)
#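 Results reflect a 48-hour exposure of cells in 96-well plates to compound at five concentrations. GI50: concentration for 50% inhibition of growth.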 The source made the active and inactive calls. Rule as the data show it: active = GI50 up to about 1.1 µM and inactive = higher.
# Key:
# Test in all cases: NCI-60 cell line screen, 48 h
# SW-620 = system: SW-620
# HL-60 = system: HL-60
# K562 = system: K562
# SF-539 = system: SF-539
# NCI-H460 = system: NCI-H460
# OVCAR-5 = system: OVCAR-5
# NCI/ADR-RES = system: NCI/ADR-RES
# PC-3 = system: PC-3
# NCI-H522 = system: NCI-H522
# COLO 205 = system: COLO 205
# UACC-62 = system: UACC-62
# HCT-116 = system: HCT-116
# NCI-H226 = system: NCI-H226
# TK-10 = system: TK-10
# OVCAR-4 = system: OVCAR-4
# OVCAR-3 = system: OVCAR-3
# HCC 2998 = system: HCC 2998
# SF-295 = system: SF-295
# NCI-H23 = system: NCI-H23
# DU-145 = system: DU-145
# SR = system: SR
# OVCAR-8 = system: OVCAR-8
# BT-549 = system: BT-549
# A549 = system: A549
# MOLT-4 = system: MOLT-4
# SK-MEL-5 = system: SK-MEL-5
# MCF7 = system: MCF7
# Hs-578T = system: Hs-578T
# RPMI-8226 = system: RPMI-8226
# SF-268 = system: SF-268
# MDA-MB-435 = system: MDA-MB-435
# SNB-75 = system: SNB-75
# SK-OV-3 = system: SK-OV-3
# 786-0 = system: 786-0
# SN12C = system: SN12C
# HOP-62 = system: HOP-62
# U-251 = system: U-251
# M14 = system: M14
# UACC-257 = system: UACC-257
# UO-31 = system: UO-31
# A498 = system: A498
# CCRF-CEM = system: CCRF-CEM
# Malme-3M = system: Malme-3M
# EKVX = system: EKVX
# SK-MEL-2 = system: SK-MEL-2
# LOX IMVI = system: LOX IMVI
# ACHN = system: ACHN
# SK-MEL-28 = system: SK-MEL-28
# RXF 393 = system: RXF 393
# SNB-19 = system: SNB-19
# MDA-N = system: MDA-N
# MDA-MB-231 = system: MDA-MB-231
# KM12 = system: KM12
# HCT-15 = system: HCT-15
# IGROV-1 = system: IGROV-1
# CAKI-1 = system: CAKI-1
# T47D = system: T47D
# HOP-92 = system: HOP-92
# HT-29 = system: HT-29
compound,measurement,setting,value
CCn1c(SCC(=O)NNC(=S)Nc2ccc(Cl)cc2)nc2ccccc2c1=O,GI50,SW-620,95.1 µM (inactive)
same,GI50,HL-60,29.9 µM (inactive)
same,GI50,K562,30.3 µM (inactive)
same,GI50,SF-539,58.1 µM (inactive)
same,GI50,NCI-H460,49.8 µM (inactive)
same,GI50,OVCAR-5,> 100 µM (inactive)
same,GI50,NCI/ADR-RES,47.1 µM (inactive)
same,GI50,PC-3,27.2 µM (inactive)
same,GI50,NCI-H522,59 µM (inactive)
same,GI50,COLO 205,70 µM (inactive)
same,GI50,UACC-62,35.2 µM (inactive)
same,GI50,HCT-116,39.8 µM (inactive)
same,GI50,NCI-H226,> 100 µM (inactive)
same,GI50,TK-10,37.3 µM (inactive)
same,GI50,OVCAR-4,40 µM (inactive)
same,GI50,OVCAR-3,82 µM (inactive)
same,GI50,HCC 2998,49 µM (inactive)
same,GI50,SF-295,41.9 µM (inactive)
same,GI50,NCI-H23,45.3 µM (inactive)
same,GI50,DU-145,55.6 µM (inactive)
same,GI50,SR,43.9 µM (inactive)
same,GI50,OVCAR-8,43 µM (inactive)
same,GI50,BT-549,31.8 µM (inactive)
same,GI50,A549,40.6 µM (inactive)
same,GI50,MOLT-4,30.8 µM (inactive)
same,GI50,SK-MEL-5,> 100 µM (inactive)
same,GI50,MCF7,56.2 µM (inactive)
same,GI50,Hs-578T,> 100 µM (inactive)
same,GI50,RPMI-8226,24.5 µM (inactive)
same,GI50,SF-268,87.1 µM (inactive)
same,GI50,MDA-MB-435,42.1 µM (inactive)
same,GI50,SNB-75,> 100 µM (inactive)
same,GI50,SK-OV-3,53.8 µM (inactive)
same,GI50,786-0,45.1 µM (inactive)
same,GI50,SN12C,47.5 µM (inactive)
same,GI50,HOP-62,79.1 µM (inactive)
same,GI50,U-251,46.9 µM (inactive)
same,GI50,M14,> 100 µM (inactive)
same,GI50,UACC-257,53.2 µM (inactive)
same,GI50,UO-31,32 µM (inactive)
same,GI50,A498,46.9 µM (inactive)
same,GI50,CCRF-CEM,33.1 µM (inactive)
same,GI50,Malme-3M,42.2 µM (inactive)
same,GI50,EKVX,> 100 µM (inactive)
same,GI50,SK-MEL-2,74.8 µM (inactive)
same,GI50,LOX IMVI,30.1 µM (inactive)
same,GI50,ACHN,47.9 µM (inactive)
same,GI50,SK-MEL-28,56.6 µM (inactive)
same,GI50,RXF 393,26.2 µM (inactive)
same,GI50,SNB-19,> 100 µM (inactive)
same,GI50,MDA-N,55.3 µM (inactive)
same,GI50,MDA-MB-231,> 100 µM (inactive)
same,GI50,KM12,83 µM (inactive)
same,GI50,HCT-15,38.5 µM
same,GI50,IGROV-1,> 100 µM (inactive)
same,GI50,CAKI-1,43.9 µM (inactive)
same,GI50,T47D,35.8 µM (inactive)
O=C(CCN1CCCCC1)c1csc2ccccc12,GI50,SW-620,> 100 µM (inactive)
same,GI50,K562,> 100 µM (inactive)
same,GI50,SF-539,> 100 µM (inactive)
same,GI50,NCI-H460,> 100 µM (inactive)
same,GI50,OVCAR-5,> 100 µM (inactive)
same,GI50,NCI/ADR-RES,> 100 µM (inactive)
same,GI50,PC-3,> 100 µM (inactive)
same,GI50,NCI-H522,> 100 µM (inactive)
same,GI50,COLO 205,> 100 µM (inactive)
same,GI50,UACC-62,> 100 µM (inactive)
same,GI50,HCT-116,> 100 µM (inactive)
same,GI50,NCI-H226,> 100 µM (inactive)
same,GI50,TK-10,94.6 µM (inactive)
same,GI50,OVCAR-4,> 100 µM (inactive)
same,GI50,OVCAR-3,> 100 µM (inactive)
same,GI50,SF-295,> 100 µM (inactive)
same,GI50,NCI-H23,> 100 µM (inactive)
same,GI50,DU-145,> 100 µM (inactive)
same,GI50,SR,> 100 µM (inactive)
same,GI50,OVCAR-8,> 100 µM (inactive)
same,GI50,BT-549,> 100 µM (inactive)
same,GI50,A549,> 100 µM (inactive)
same,GI50,MOLT-4,61.2 µM (inactive)
same,GI50,SK-MEL-5,> 100 µM (inactive)
same,GI50,MCF7,20 µM (inactive)
same,GI50,HOP-92,> 100 µM (inactive)
same,GI50,Hs-578T,> 100 µM (inactive)
same,GI50,RPMI-8226,10.1 µM (inactive)
same,GI50,SF-268,> 100 µM (inactive)
same,GI50,MDA-MB-435,> 100 µM (inactive)
same,GI50,SNB-75,> 100 µM (inactive)
same,GI50,HT-29,> 100 µM (inactive)
same,GI50,SK-OV-3,> 100 µM (inactive)
same,GI50,786-0,50.1 µM (inactive)
same,GI50,SN12C,> 100 µM (inactive)
same,GI50,HOP-62,> 100 µM (inactive)
same,GI50,U-251,> 100 µM (inactive)
same,GI50,M14,> 100 µM (inactive)
same,GI50,UACC-257,> 100 µM (inactive)
same,GI50,UO-31,> 100 µM (inactive)
same,GI50,A498,> 100 µM (inactive)
same,GI50,Malme-3M,> 100 µM (inactive)
same,GI50,EKVX,> 100 µM (inactive)
same,GI50,SK-MEL-2,> 100 µM (inactive)
same,GI50,LOX IMVI,> 100 µM (inactive)
same,GI50,ACHN,> 100 µM (inactive)
same,GI50,SK-MEL-28,> 100 µM (inactive)
same,GI50,RXF 393,> 100 µM (inactive)
same,GI50,SNB-19,> 100 µM (inactive)
same,GI50,MDA-N,> 100 µM (inactive)
same,GI50,MDA-MB-231,> 100 µM (inactive)
same,GI50,KM12,33.1 µM (inactive)
same,GI50,HCT-15,> 100 µM
same,GI50,IGROV-1,> 100 µM (inactive)
same,GI50,CAKI-1,> 100 µM (inactive)
same,GI50,T47D,45.7 µM (inactive)
